From US20170188618A1, “STABLE EMULSIONS FROM DIPEPTIDE DERIVATIVES” (UNIVERSITY OF STRATHCLYDE, priority 2014, published 2017) come the findings set out here.

Residues, ends and D or L forms follow the SMILES beside them. *: point of attachment. Fmoc = O=C(OCC1c2ccccc2-c2ccccc21)*

Series [1] in a line: Emulsion formation by aromatic peptide amphiphiles (fluorescence microscopy, FITC label). The settings on record: chloroform / phosphate buffer pH 8; 10 mM peptide. In kind it is physicochemical. Here is the method: (§1) (the volume ratio of buffer solution to chloroform is altered from 1:9, 3:7, 5:5, 7:3, to 9:1, total volume was always 1 mL), after hand-shaking for 5 seconds emulsions form in vials. For SEM, IR, stability, average particle size, critical emulsion concentration and demulsification measurements, the volume ratio of buffer solution to chloroform was fixed at 7:3. The concentration of all aromatic peptide amphiphiles studied (Fmoc-YA, Fmoc-YS, Pyr-YL, Fmoc-FF and Fmoc-FFF) was 10 mM, except for in the determination of the critical emulsion concentration (0.1-10 mM) and demulsification measurements (2 mM).

Series [2] is classed as physicochemical. As for the experimental part:
To further increase the hydrophobicity, di- and tri-phenylalanine were tested as the peptide sequences (Fmoc-FF and Fmoc-FFF). […] Replacing the Fmoc group with pyrene, amphiphiles and the emulsion systems are inherently endowed with fluorescent properties. […] There is the clear expectation, based upon the results presented that it should be possible to change the peptide sequences and aromatic moieties to further to optimize and functionalize the emulsion systems.

Series [3] in a line: Stability of chloroform-in-water emulsions (time, heat, salts) versus SDS. In kind it is physicochemical. As to conditions: 10 mM. As for the experimental part:
The top images show freshly prepared emulsions and the bottom images show emulsions incubated for 2 weeks. […] The top images show freshly prepared emulsions and the bottom images show emulsions heated at 60° C. for 3 hours. […] The top images show freshly prepared emulsions and the bottom images show emulsions incubated for 24 hours.
as §1

Series [4] can be described thus: Partitioning of peptides between water, chloroform and the water/chloroform interface (UV-Vis). Type of series: physicochemical. As to conditions: water/chloroform biphasic system. The source says:
(the volume ratio of buffer solution to chloroform is altered from 1:9, 3:7, 5:5, 7:3, to 9:1), after manual agitation for 5 seconds emulsions form in vials, as FIG. 2a shown. […] In the images shown, the milky layers are emulsions and the transparent layers above and below are the aqueous and chloroform phase, respectively. UV-Vis was used to determine the amount of Fmoc-YL that remained in water phase and transferred to chloroform. Fluorescein isothiocyanate (FITC) was used to label the aqueous phase in the emulsion layers for imaging by fluorescence microscopy.
High resolution mass spectra (HRMS) were recorded on a Thermo Electron Exactive. 400.1 (1H) NMR spectra were recorded on Brucker Avance 400 spectrometer at room temperature using perdeuterated solvents as internal standards. The emulsion droplets were characterized by fluorescence microscopy. The devices were mounted on an inverted microscope (AXIO Observer A1, Zeiss) and images were acquired using a EMCCD LucaR camera (Andor Technologies). Images (using brightfield and fluorescence microscopy) were acquired using Zeiss ×20 dry objective and the appropriate filter set for the fluorophore being imaged. Image was analyzed using ImageJ.

The nature of series [5]: Gel formation in buffer solution and chloroform. In kind it is physicochemical. The settings on record: 10 mM in 0.6 M sodium phosphate buffer pH 8, no enzyme.
The target in a further series is T1, alkaline phosphatase (Bos taurus, UniProt P19111).
T1 construct: purchased Sigma Aldrich; host or cells: Pichia pastoris
The experiment in a line: Dephosphorylation of Fmoc-YpL to Fmoc-YL by alkaline phosphatase (reversed phase HPLC). Type of series: biochemical, bovine. As to conditions: 10 mM, buffer pH 8. Here is the method:
Enzymatic Conversion of Fmoc-YpL to Fmoc-YL.
Fmoc-Tyr(PO(NMe2)2-OH (537.55 g·mol^−1) was purchased from Novabiochem. Fmoc-Tyr-OH (403.43 g·mol^−1), L-Leucine tert-butyl hydrochloride (223.74 g·mol^−1) and alkaline phosphatase from bovine, expressed in Pichia pastoris (5000 U·mg^−1protein, 20 mgprotein·mL^−1, 0.049 mL, Apparent molar weight 160 kDa) were supplied by Sigma Aldrich. One enzyme unit corresponds to the quantity of alkaline phosphatase hydrolysing 1 μmol of 4-nitrophenyl phosphate per minute at pH 9.8 and 37° C.
10 mM of synthesised Fmoc-YpL was prepared in 950 μL of 0.6 M sodium phosphate buffer pH 8 and immediately added 50 μL of alkaline phosphatase (0.0555 U·μL^−1, or 55.53 U·mL^−1 enzymatic concentration), vortexed and subject to ultra sounds at room temperature. All characterisation was done after 24 hours except when stated otherwise. For the Fmoc-YpL precursor, the preparation was the same except no enzyme was added.

In the next series the target is T2, thermolysin (Bacillus thermoproteolyticus, UniProt P00800).
T2 sequence (P00800 233-548): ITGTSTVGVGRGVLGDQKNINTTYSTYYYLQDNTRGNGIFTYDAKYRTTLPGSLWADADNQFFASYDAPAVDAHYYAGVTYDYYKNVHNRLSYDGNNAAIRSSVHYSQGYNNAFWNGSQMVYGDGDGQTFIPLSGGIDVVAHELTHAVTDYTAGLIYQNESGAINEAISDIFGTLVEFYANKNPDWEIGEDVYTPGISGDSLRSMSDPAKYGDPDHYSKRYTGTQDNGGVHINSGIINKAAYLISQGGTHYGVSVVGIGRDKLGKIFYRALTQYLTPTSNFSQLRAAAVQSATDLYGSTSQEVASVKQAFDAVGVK
In words: Enzymatic demulsification of emulsions by thermolysin. Type of series: biochemical.
Description: Scale bar is 50 μm. […] (c) Optical photographs of vials in which emulsions formed (left) and demulsified (right) in addition of thermolysin.
Another vital advantage of using peptide self-assembly to stabilize the emulsion systems is the ability to digest the stabilizing film using a suitable enzyme. Proteases, the enzymes that cleave peptide bonds cause disassembly of amphiphiles.
as §1

T1 sequence (P19111 20-506): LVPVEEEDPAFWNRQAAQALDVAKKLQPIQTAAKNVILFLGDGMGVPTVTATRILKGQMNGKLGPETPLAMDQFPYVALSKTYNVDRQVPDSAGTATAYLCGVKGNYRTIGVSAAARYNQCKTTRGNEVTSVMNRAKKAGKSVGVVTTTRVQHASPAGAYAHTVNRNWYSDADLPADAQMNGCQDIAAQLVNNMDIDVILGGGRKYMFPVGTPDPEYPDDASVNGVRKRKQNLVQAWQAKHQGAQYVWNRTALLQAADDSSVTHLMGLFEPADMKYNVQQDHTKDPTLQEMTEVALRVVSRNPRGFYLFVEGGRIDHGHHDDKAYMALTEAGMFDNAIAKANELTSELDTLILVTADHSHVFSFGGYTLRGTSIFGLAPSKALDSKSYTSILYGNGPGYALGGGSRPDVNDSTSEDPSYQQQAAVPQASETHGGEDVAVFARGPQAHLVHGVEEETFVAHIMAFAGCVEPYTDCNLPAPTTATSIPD

Turning to `O=C(N[C@@H](Cc1ccccc1)C(=O)N[C@@H](Cc1ccccc1)C(=O)N[C@@H](Cc1ccccc1)C(=O)O)OCC1c2ccccc2-c2ccccc21` [Fmoc-FFF, Fmoc-Phe-Phe-Phe-OH] (Fmoc-Phe-Phe-Phe-OH), the “type of emulsion formed” value in series [1] was “formation of water-in-chloroform emulsions”. For the same compound, in series [2], the solubility in chloroform result is “do dissolve in chloroform” and the “solubility in the water phase” value is reported as “too hydrophobic to dissolve in the water phase”.
In the case of `CCCCCCCCCCCCOS(=O)(=O)[O-].[Na+]` [SDS, sodium dodecyl sulfate], the “emulsion state after 24 h in salt solution” value in series [3] (100 mM phosphate, chloride and thiocyanate solution) was “phase-separated”. The “emulsion state after two weeks at room temperature” value in series [3] (chloroform-in-water) was “demulsified and phase-separated”.
As for “Fmoc-tyrosine phosphate-leucine [Fmoc-YpL]”, in series [4], the “Remain in water (%)” value stood at 31.03%, the “Transfer to chloroform (%)” value was 0.74% and the “Transfer to interface (%)” value is 68.23%. Further, in series [5], the “gel formation of precursor solution” value is “not able to form a gel”. Further, the “time to complete conversion to Fmoc-YL” value on alkaline phosphatase is no more than 24 h. The “Fmoc-YpL converted into Fmoc-YL” value at alkaline phosphatase (after 2 hours) is listed as “approximately 90%”.
As to Fmoc-tyrosine-leucine [Fmoc-YL], the “time for droplets to demulsify and coalesce to bigger droplets after adding thermolysin” value on thermolysin (1 mg·mL^−1 thermolysin, 2 mmol·L^−1 Fmoc-YL) was 60 s. Also, the “conversion of cleaving reaction catalyzed by thermolysin (HPLC)” value at thermolysin (after 10 minutes, aqueous media) was determined as 50%.
